Laboratory results as given in US20260022143A1, “Cyclic Peptide Inhibitors of IL-23” (JANSSEN PHARMACEUTICA NV, priority 2022, published 2026).
Starred links: 1 amine or outer side, 2 acyl side, 3 side chain; linkers in the order of their positions; H or OH if unused. Positions of bridges follow the written chain, without caps; N, C: chain ends. Non-standard residues stand in square brackets, D forms with d. Residues, ends and D or L forms follow the SMILES beside them. *: point of attachment. Me3N+CH2CH2(OCH2CH2)4CO = C[N+](C)(C)CCOCCOCCOCCOCCC(=O)*; Me3N+(CH2)2O(CH2)2O(CH2)2CO = C[N+](C)(C)CCOCCOCCC(=O)*; X35 = Cc1cccc2c(C[C@H](N[*:1])C(=O)[*:2])cn(C)c12; Trp(7-Me) = Cc1cccc2c(C[C@H](N)C(=O)O)c[nH]c12; d(hLys(Me3)) = C[N+](C)(C)CCCCC[C@@H](N)C(=O)O; Decanoyl(3,6,9-trioxa) = COCCOCCOCC(=O)*; Dab(NMeAc) = CC(=O)N(C)CC[C@H](N)C(=O)O; X1 = CN(CC[C@H](N[*:1])C(=O)[*:2])[*:3]; 2Nal = N[C@@H](Cc1ccc2ccccc2c1)C(=O)O; AEF = NCCOc1ccc(C[C@H](N)C(=O)O)cc1; X24 = C[N+](C)(CCN[*:1])CC(=O)[*:2]; 3Pal = N[C@@H](Cc1cccnc1)C(=O)O; Lys(Me) = CNCCCC[C@H](N)C(=O)O; X5 = C[N+](C)(C)CCOCCOCC(=O)*; Pen = CC(C)(S)[C@H](N)C(=O)O; Thp = NC1(C(=O)O)CCOCC1; X3 = C[N+](C)(C)CCCCC*; Sar = CNCC(=O)O

Key:
IL-23R = target: T1, IL-23R (Homo sapiens, UniProt Q5VWK5); assay: IL23R Reporter Assay; format: cell-based; conditions: HEK293 cells containing IL-23R, IL-12RP1 and STAT-inducible firefly luciferase reporter; 10 ng/mL IL-23 (EC90); 5 h at 37° C.; read-out: IL23R Reporter Assay
T1 construct: host or cells: HEK293
T1 sequence (Q5VWK5 24-629): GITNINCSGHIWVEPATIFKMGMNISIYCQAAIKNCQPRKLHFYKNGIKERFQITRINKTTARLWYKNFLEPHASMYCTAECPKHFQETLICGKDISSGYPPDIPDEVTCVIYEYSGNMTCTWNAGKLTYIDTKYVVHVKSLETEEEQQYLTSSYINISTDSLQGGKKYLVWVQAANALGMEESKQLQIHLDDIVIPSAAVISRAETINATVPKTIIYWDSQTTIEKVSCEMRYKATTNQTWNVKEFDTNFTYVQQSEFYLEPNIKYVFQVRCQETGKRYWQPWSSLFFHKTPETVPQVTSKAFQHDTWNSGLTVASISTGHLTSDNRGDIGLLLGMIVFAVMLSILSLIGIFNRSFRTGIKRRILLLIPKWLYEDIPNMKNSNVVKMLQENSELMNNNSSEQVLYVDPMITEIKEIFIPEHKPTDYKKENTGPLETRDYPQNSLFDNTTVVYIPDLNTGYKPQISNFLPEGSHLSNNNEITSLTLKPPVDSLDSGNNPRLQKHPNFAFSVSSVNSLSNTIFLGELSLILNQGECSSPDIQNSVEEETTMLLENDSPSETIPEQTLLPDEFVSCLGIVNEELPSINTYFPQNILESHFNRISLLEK

[1] = Exposed Polar Surface Area (EPSA); format: physicochemical; conditions: SFC on Chirex 3014 column; sample 1 mM DMSO stock; read-out: EPSA
Procedure, shortened: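 Polarity descriptor in Å² derived from retention time using 8 calibration standards re-run every 20 compounds. Duplicate injections of 1 mM DMSO stock; linear 5–60% modifier gradient (20 mM ammonium formate in MeOH) with CO2 at 4 mL/min, 35 °C, on a Chirex 3014 column.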

| Compound | IC50 (IL-23R) [nM] | EPSA [1] [A^2] |
| --- | --- | --- |
| COCCOCCOCC(=O)NCC[N+](C)(C)CC(=O)N[C@@H]1C(=O)N[C@@H](CC(=O)N(C)C)C(=O)N[C@@H]([C@@H](C)O)C(=O)N[C@@H](Cc2c[nH]c3c(C)cccc23)C(=O)N[C@@H](CCCCN(C)C(C)=O)C(=O)N[C@H](C(=O)N[C@@H](Cc2ccc(OCCN)cc2)C(=O)N[C@@H](Cc2ccc3ccccc3c2)C(=O)NC2(C(=O)N[C@@H](CCC(=O)N(C)C)C(=O)N[C@@H](CC(N)=O)C(=O)N[C@@H](Cc3cccnc3)C(=O)N(C)CC(N)=O)CCOCC2)C(C)(C)SSC1(C)C [compound 152, mPEG3CO-SP6-Pen(3)-N(N(Me)2)-T-7MeW-K(NMeAc)-Pen(3)-AEF-2Nal-THP-QNMe2-N-3Pya-Sar-CONH2] ({Decanoyl(3,6,9-trioxa)}-[X24][Pen]D(NMe2)T[Trp(7-Me)][Lys(Me)](Ac)[Pen][AEF][2Nal][Thp]E(NMe2)N[3Pal][Sar]-NH2; disulfide 2-7) | 1.6 | 155 |
| CC(=O)NCCCC[C@@H]1NC(=O)[C@H](Cc2c[nH]c3c(C)cccc23)NC(=O)[C@H]([C@@H](C)O)NC(=O)[C@H](CC(N)=O)NC(=O)[C@@H](NC(C)=O)C(C)(C)SSC(C)(C)[C@@H](C(=O)N[C@@H](Cc2ccc(OCCN)cc2)C(=O)N[C@@H](Cc2ccc3ccccc3c2)C(=O)NC2(C(=O)N[C@@H](CCCCNC(C)=O)C(=O)N[C@@H](CC(N)=O)C(=O)N(C)C)CCOCC2)NC1=O [compound 153] (Ac-[Pen]NT[Trp(7-Me)]K(Ac)[Pen][AEF][2Nal][Thp]K(Ac)N-NMe2; disulfide 1-6 (inferred)) | 270 | 171 |
| Cc1cccc2c(C[C@@H]3NC(=O)[C@H]([C@@H](C)O)NC(=O)[C@H](CC(N)=O)NC(=O)[C@@H](NC(=O)CCOCCOCC[N+](C)(C)C)C(C)(C)SSC(C)(C)[C@@H](C(=O)N[C@@H](Cc4ccc(OCCN)cc4)C(=O)N[C@@H](Cc4ccc5ccccc5c4)C(=O)NC4(C(=O)N[C@@H](CCC(=O)N(C)C)C(=O)N[C@@H](CC(N)=O)C(=O)N[C@@H](Cc5cccnc5)C(=O)N(C)CC(=O)N(C)C)CCOCC4)NC(=O)[C@H](CCC(=O)N(C)C)NC3=O)c[nH]c12 [compound 156, cPEG3aCO-Pen(3)-N-T-7MeW-Q(N(Me)2)-Pen(3)-AEF-2Nal-THP-Q(N(Me)2)-N-3Pya-Sar-CON(Me)2] ({Me3N+(CH2)2O(CH2)2O(CH2)2CO}-[Pen]NT[Trp(7-Me)]E(NMe2)[Pen][AEF][2Nal][Thp]E(NMe2)N[3Pal][Sar]-NMe2; disulfide 1-6) | 2 | 155 |
| CC(=O)N(C)CC[C@H](NC(=O)C1(NC(=O)[C@H](Cc2ccc3ccccc3c2)NC(=O)[C@H](Cc2ccc(OCCN)cc2)NC(=O)[C@H]2NC(=O)[C@H](CCC(=O)N(C)C)NC(=O)[C@H](Cc3c[nH]c4c(C)cccc34)NC(=O)[C@H]([C@@H](C)O)NC(=O)[C@H](CC(=O)N(C)C)NC(=O)[C@@H](NC(=O)CCOCCOCC[N+](C)(C)C)C(C)(C)SSC2(C)C)CCOCC1)C(=O)N[C@@H](CC(N)=O)C(=O)N[C@@H](Cc1cccnc1)C(=O)N(C)CC(=O)N(C)C [compound 159, cPEG3aCO-Pen(3)-N(N(Me)2)-T-7MeW-Q(N(Me)2)-Pen(3)-AEF-2Nal-THP-Dab(NMeAc)-N-3Pya-Sar-CON(Me)2] ({Me3N+(CH2)2O(CH2)2O(CH2)2CO}-[Pen]D(NMe2)T[Trp(7-Me)]E(NMe2)[Pen][AEF][2Nal][Thp][Dab(NMeAc)]N[3Pal][Sar]-NMe2; disulfide 1-6) | 1.8 | 149 |
| CC(=O)N[C@H](CCCCC[N+](C)(C)C)C(=O)N[C@@H]1C(=O)N[C@@H](CC(=O)N(C)C)C(=O)N[C@@H]([C@@H](C)O)C(=O)N[C@@H](Cc2c[nH]c3c(C)cccc23)C(=O)N[C@@H](CCCCN(C)C(C)=O)C(=O)N[C@H](C(=O)N[C@@H](Cc2ccc(OCCN)cc2)C(=O)N[C@@H](Cc2ccc3ccccc3c2)C(=O)NC2(C(=O)N[C@@H](CCC(=O)O)C(=O)N[C@@H](CC(N)=O)C(=O)N[C@@H](Cc3cccnc3)C(=O)N(C)CC(=O)N(C)C)CCOCC2)C(C)(C)SSC1(C)C [compound 163, MeCO-hk(Me)3-Pen(3)-N(N(Me)2)-T-7MeW-K(NMeAc)-Pen(3)-AEF-2Nal-THP-E-N-3Pya-Sar-CON(Me)2] (Ac-[d(hLys(Me3))][Pen]D(NMe2)T[Trp(7-Me)][Lys(Me)](Ac)[Pen][AEF][2Nal][Thp]EN[3Pal][Sar]-NMe2; disulfide 2-7 (inferred)) | 3.2 | 168 |
| CC(=O)N(C)CCCC[C@@H]1NC(=O)[C@H](Cc2c[nH]c3c(C)cccc23)NC(=O)[C@H]([C@@H](C)O)NC(=O)[C@H](CC(=O)N(C)C)NC(=O)[C@@H](NC(=O)CCOCCOCC[N+](C)(C)C)C(C)(C)SSC(C)(C)[C@@H](C(=O)N[C@@H](Cc2ccc(OCCCCC[N+](C)(C)C)cc2)C(=O)N[C@@H](Cc2ccc3ccccc3c2)C(=O)NC2(C(=O)N[C@@H](CCC(=O)O)C(=O)N[C@@H](CC(N)=O)C(=O)N[C@@H](Cc3cccnc3)C(=O)N(C)CC(=O)N(C)C)CCOCC2)NC1=O [compound 165, cPEG3aCO-Pen(3)-N(N(Me)2)-T-7MeW-K(NMeAc)-Pen(3)-TMAPF-2Nal-THP-E-N-3Pya-Sar-CON(Me)2] ({Me3N+(CH2)2O(CH2)2O(CH2)2CO}-[Pen]D(NMe2)T[Trp(7-Me)][Lys(Me)](Ac)[Pen]Y(X3)[2Nal][Thp]EN[3Pal][Sar]-NMe2; disulfide 1-6) | 4.3 | 151 |
| CC(=O)NCCCC[C@@H]1NC(=O)[C@H](Cc2cn(C)c3c(C)cccc23)NC(=O)[C@H]([C@@H](C)O)NC(=O)[C@H](CC(N)=O)NC(=O)[C@@H](NC(C)=O)C(C)(C)SSC(C)(C)[C@@H](C(=O)N[C@@H](Cc2ccc(OCCN)cc2)C(=O)N[C@@H](Cc2ccc3ccccc3c2)C(=O)NC2(C(=O)N[C@@H](CCC(=O)O)C(=O)N[C@@H](CC(N)=O)C(=O)N[C@@H](Cc3cccnc3)C(=O)N(C)CC(N)=O)CCOCC2)NC1=O [compound 166] (Ac-[Pen]NT[X35]K(Ac)[Pen][AEF][2Nal][Thp]EN[3Pal][Sar]-NH2; disulfide 1-6 (inferred)) | 3 | 179 |

The remaining lines, values ahead:

| IC50 (IL-23R) [nM] | EPSA [1] [A^2] | Compound |
| --- | --- | --- |
| 6.5 | 145 | Cc1cccc2c(C[C@@H]3NC(=O)[C@H]([C@@H](C)O)NC(=O)[C@H](CC(=O)N(C)C)NC(=O)[C@@H](NC(=O)CCOCCOCCOCCOCC[N+](C)(C)C)C(C)(C)SSC(C)(C)[C@@H](C(=O)N[C@@H](Cc4ccc(OCCN)cc4)C(=O)N[C@@H](Cc4ccc5ccccc5c4)C(=O)NC4(C(=O)N[C@@H](CCN(C)C(=O)COCCOCC[N+](C)(C)C)C(=O)N[C@@H](CC(N)=O)C(=O)N[C@@H](Cc5cccnc5)C(=O)N(C)CC(=O)N(C)C)CCOCC4)NC(=O)[C@H](CCN(C)C(=O)COCCOCC[N+](C)(C)C)NC3=O)c[nH]c12 [compound 172, cPEG5aCO-Pen(3)-N(N(Me)2)-T-7MeW-Dab(NMecPEG2a)-Pen(3)-AEF-2Nal-THP-Dab(NMecPEG2a)-N-3Pya-Sar-CON(Me)2] ({Me3N+CH2CH2(OCH2CH2)4CO}-[Pen]D(NMe2)T[Trp(7-Me)][X1](X5)[Pen][AEF][2Nal][Thp][X1](X5)N[3Pal][Sar]-NMe2; disulfide 1-6) |
| 3.1 | 144 | CC(=O)N(C)CC[C@H](NC(=O)C1(NC(=O)[C@H](Cc2ccc3ccccc3c2)NC(=O)[C@H](Cc2ccc(OCCN)cc2)NC(=O)[C@H]2NC(=O)[C@H](CCC(=O)N(C)C)NC(=O)[C@H](Cc3c[nH]c4c(C)cccc34)NC(=O)[C@H]([C@@H](C)O)NC(=O)[C@H](CC(=O)N(C)C)NC(=O)[C@@H](NC(=O)CCOCCOCCOCCOCC[N+](C)(C)C)C(C)(C)SSC2(C)C)CCOCC1)C(=O)N[C@@H](CC(N)=O)C(=O)N[C@@H](Cc1cccnc1)C(=O)N(C)CC(=O)N(C)C [compound 173, cPEG5aCO-Pen(3)-N(N(Me)2)-T-7MeW-Q(N(Me)2)-Pen(3)-AEF-2Nal-THP-Dab(NMeAc)-N-3Pya-Sar-CON(Me)2] ({Me3N+CH2CH2(OCH2CH2)4CO}-[Pen]D(NMe2)T[Trp(7-Me)]E(NMe2)[Pen][AEF][2Nal][Thp][Dab(NMeAc)]N[3Pal][Sar]-NMe2; disulfide 1-6 (inferred)) |
| 6.3 | 140 | CC(=O)N[C@@H]1C(=O)N[C@@H](CC(=O)N(C)C)C(=O)N[C@@H]([C@@H](C)O)C(=O)N[C@@H](Cc2c[nH]c3c(C)cccc23)C(=O)N[C@@H](CCN(C)C(=O)CCOCCOCC[N+](C)(C)C)C(=O)N[C@H](C(=O)N[C@@H](Cc2ccc(OCCN)cc2)C(=O)N[C@@H](Cc2ccc3ccccc3c2)C(=O)NC2(C(=O)N[C@@H](CCN(C)C(=O)CCOCCOCC[N+](C)(C)C)C(=O)N[C@@H](CC(N)=O)C(=O)N[C@@H](Cc3cccnc3)C(=O)N(C)CC(=O)N(C)C)CCOCC2)C(C)(C)SSC1(C)C [compound 175, MeCO-Pen(3)-N(N(Me)2)-T-7MeW-Dab(NMecPEG3a)-Pen(3)-AEF-2Nal-THP-Dab(NMecPEG3a)-N-3Pya-Sar-CON(Me)2] (Ac-[Pen]D(NMe2)T[Trp(7-Me)][X1](Me3N+(CH2)2O(CH2)2O(CH2)2CO)[Pen][AEF][2Nal][Thp][X1](Me3N+(CH2)2O(CH2)2O(CH2)2CO)N[3Pal][Sar]-NMe2; disulfide 1-6 (inferred)) |
